Assay results as given in patent publication US7476741B2, “Substituted 4H-chromens, 2H-chromenes, chromans and analogs as activators of caspases and inducers of apoptosis and the use thereof” (Cytovia, Inc., priority 2002, dated 2009).

tested on: T-47D; test: Caspase cascade activation assay (N-(Ac-DEVD)-N'-ethoxycarbonyl-R110 fluorogenic substrate) in T-47D cells; type: cell-based; conditions: T-47D human breast cancer cells, 24 h incubation; ratio of net RFU of compound to control
Description: (§1) Human breast cancer cell lines T-47D and ZR-75-1 were grown according to media component mixtures designated by American Type Culture Collection +10% FCS (Invitrogen Corporation), in a 5% CO2−95% humidity incubator at 37° C. T-47D and ZR-75-1 cells were maintained at a cell density between 30 and 80% confluency at a cell density of 0.1 to 0.6×10^6 cells/mL. Cells were harvested at 600×g and resuspended at 0.65×10^6 cells/mL into appropriate media +10% FCS. An aliquot of 45 μL of cells was added to a well of a 96-well microtiter plate containing 5 μL of a 10% DMSO in RPMI-1640 media solution containing 0.16 to 10 μM of 4-(3-bromo-4,5-dimethoxyphenyl)-3-cyano-4H-indolo[4,5-b]pyran (Example 1) or other test compound (0.016 to 1 μM final). An aliquot of 45 μL of cells was added to a well of a 96-well microtiter plate containing 5 μL of a 10% DMSO in RPMI-1640 media solution without test compound as the control sample. The samples were mixed by agitation and then incubated at 37° C. for 24 h in a 5% CO2-95% humidity incubator. After incubation, the samples were removed from the incubator and 50 μL of a solution containing 20 μM of N-(Ac-DEVD)-N′-ethoxycarbonyl-R110 (SEQ ID No.:1) fluorogenic substrate (Cytovia, Inc.; U.S. Pat. No. 6,335,429), 20% sucrose (Sigma), 20 mM DTT (Sigma), 200 mM NaCl (Sigma), 40 mM Na PIPES buffer pH 7.2 (Sigma), and 500 μg/mL lysolecithin (Calbiochem) was added. The samples were mixed by agitation and incubated at room temperature. Using a fluorescent plate reader (Model 1420 Wallac Instruments), an initial reading (T=0) was made approximately 1-2 min after addition of the substrate solution, employing excitation at 485 nm and emission at 530 nm, to determine the background fluorescence of the control sample. After the 3 h incubation, the samples were read for fluorescence as above (T=3 h).
(§2) The Relative Fluorescence Unit values (RFU) were used to calculate the sample readings as follows: RFU(T=3h)−Control RFU(T=0)=Net RFU(T=3h)
(§3) The activity of caspase cascade activation was determined by the ratio of the net RFU value for 4-(3-bromo-4,5-dimethoxyphenyl)-3-cyano-4H-indolo[4,5-b]pyran or other test compound to that of control samples. The EC50 (nM) was determined by a sigmoidal dose-response calculation (Prism 2.0, GraphPad Software Inc.).

Row | SMILES | T-47D Ratio (caspase activity)
1 | COc1cc(C2CC(=O)Oc3c2ccc2c3ccn2C)cc(Br)c1OC (stereo not shown) [Example 21, 4-(3-Bromo-4,5-dimethoxyphenyl)-7-methyl-pyrrolo[2,3-h]chroman-2-one] | 6.2
2 | COc1cc(C2CCOc3c2ccc2c3ccn2C)cc(Br)c1OC (stereo not shown) [Example 22, 4-(3-Bromo-4,5-dimethoxyphenyl)-7-methyl-pyrrolo[2,3-h]chroman] | 6.5
3 | COc1ccc2c(c1)OC(O)CC2c1cc(OC)c(OC)c(OC)c1 (stereo not shown) [Example 23, 7-Methoxy-2-hydroxy-4-(3,4,5-trimethoxyphenyl)-chroman] | 6.0
4 | COc1cc(C2CC(O)Oc3c2ccc2[nH]ccc32)cc(Br)c1OC (stereo not shown) [Example 24, 4-(3-Bromo-4,5-dimethoxyphenyl)-2-hydroxy-pyrrolo[2,3-h]chroman] | 2.5
5 | COc1cc(C2CC(O)Oc3c2ccc2c3ccn2C)cc(OC)c1OC (stereo not shown) [Example 25, 2-Hydroxy-7-methyl-4-(3,4,5-trimethoxyphenyl)-pyrrolo[2,3-h]chroman] | 10.1
6 | COc1cc(C2CC(O)Oc3c2ccc2cnccc32)cc(Br)c1OC (stereo not shown) [Example 26, 4-(3-Bromo-4,5-dimethoxyphenyl)-2-hydroxy-pyrido[3,4-h]chroman] | 1.1
7 | COc1cc(C2CC(O)Oc3cc(NC(C)=O)ccc32)cc(Br)c1OC (stereo not shown) [Example 27, N-[4-(3-Bromo-4,5-dimethoxyphenyl)-2-hydroxy-chroman-7-yl]-acetamide] | 1.3
8 | COc1cc(C2CC(O)Oc3c2ccc2cccnc32)cc(Br)c1OC (stereo not shown) [Example 28, 4-(3-Bromo-4,5-dimethoxyphenyl)-2-hydroxy-pyrido[3,2-h]chroman] | 6.5
9 | COc1cc(C2CC(O)Oc3c2ccc2[nH]c(=O)[nH]c32)cc(Br)c1OC (stereo not shown) [Example 29, 4-(3-Bromo-4,5-dimethoxyphenyl)-7,9-dihydro-2-hydroxy-8-oxo-imidazolo[4,5-h]chroman] | 6.0
10 | COc1cc(C2CC(O)Oc3c2ccc2cc[nH]c32)cc(Br)c1OC (stereo not shown) [Example 30, 4-(3-Bromo-4,5-dimethoxyphenyl)-2-hydroxy-pyrrolo[3,2-h]chroman] | 6.8

tested on: ZR-75-1; test: Caspase cascade activation assay (N-(Ac-DEVD)-N'-ethoxycarbonyl-R110 fluorogenic substrate) in ZR-75-1 cells; type: cell-based; conditions: ZR-75-1 human breast cancer cells, 24 h incubation; sigmoidal dose-response; read-out: ZR-75-1 EC50 (nM) (potency)
Description: as §1, §2, §3

Row | EC50 [nM] | SMILES
11 | > 10000 | COc1cccc(C2=C(Br)C(C)(C)Oc3cc(OC)ccc32)c1
12 | > 10000 | COc1cc(C2CCOc3cc(N(C)C)ccc32)cc(Br)c1OC (stereo not shown)
13 | > 1000 | OC1CC(c2cc(Cl)cc(Cl)c2)c2ccc3[nH]ccc3c2O1 (stereo not shown)
14 | > 1000 | COc1cc(C2CC(OC)Oc3cc(N)ccc32)cc(Br)c1OC (stereo not shown)
15 | > 10000 | CC(=O)Nc1ccc2c(c1)OC(O)CC2c1cc(Cl)cc(Cl)c1 (stereo not shown)
16 | 127 | COc1cc(C2CC(=O)Oc3c2ccc2c3ccn2C)cc(Br)c1OC (stereo not shown) [Example 21, 4-(3-Bromo-4,5-dimethoxyphenyl)-7-methyl-pyrrolo[2,3-h]chroman-2-one]
17 | 23 | COc1ccc2c(c1)OC(O)CC2c1cc(OC)c(OC)c(OC)c1 (stereo not shown) [Example 23, 7-Methoxy-2-hydroxy-4-(3,4,5-trimethoxyphenyl)-chroman]

Further lines, the molecule ahead of its results:

Row | SMILES | EC50 [nM]
18 | COc1cccc(C2=CC(C)(C)Oc3cc(OC)ccc32)c1 | > 10000
19 | COc1ccc(C2c3ccc(N(C)C)cc3OC(OCCCN)C2Br)cc1OC (stereo not shown) | > 10000
20 | COc1ccc2c(c1)OC(OCCN)CC2c1cc(OC)c(OC)c(OC)c1 (stereo not shown) | > 1000
21 | OC1CC(c2cc(Cl)cc(Cl)c2)c2ccc3cnccc3c2O1 (stereo not shown) | > 1000
22 | COc1ccc(C2CC(=O)Oc3cc(OC)c(OC)c(OC)c32)cc1 (stereo not shown) | > 10000
23 | COc1ccc(C2CC(=O)Oc3cc(OC)c(OC)c(OC)c32)cc1OC (stereo not shown) | > 1000
24 | COc1cc(C2CCOc3c2ccc2c3ccn2C)cc(Br)c1OC (stereo not shown) [Example 22, 4-(3-Bromo-4,5-dimethoxyphenyl)-7-methyl-pyrrolo[2,3-h]chroman] | 48
25 | COc1cc(C2CC(O)Oc3c2ccc2[nH]ccc32)cc(Br)c1OC (stereo not shown) [Example 24, 4-(3-Bromo-4,5-dimethoxyphenyl)-2-hydroxy-pyrrolo[2,3-h]chroman] | 55
26 | COc1cc(C2CC(O)Oc3c2ccc2c3ccn2C)cc(OC)c1OC (stereo not shown) [Example 25, 2-Hydroxy-7-methyl-4-(3,4,5-trimethoxyphenyl)-pyrrolo[2,3-h]chroman] | 4
27 | COc1cc(C2CC(O)Oc3c2ccc2cnccc32)cc(Br)c1OC (stereo not shown) [Example 26, 4-(3-Bromo-4,5-dimethoxyphenyl)-2-hydroxy-pyrido[3,4-h]chroman] | > 1000
28 | COc1cc(C2CC(O)Oc3cc(NC(C)=O)ccc32)cc(Br)c1OC (stereo not shown) [Example 27, N-[4-(3-Bromo-4,5-dimethoxyphenyl)-2-hydroxy-chroman-7-yl]-acetamide] | 548
29 | COc1cc(C2CC(O)Oc3c2ccc2cccnc32)cc(Br)c1OC (stereo not shown) [Example 28, 4-(3-Bromo-4,5-dimethoxyphenyl)-2-hydroxy-pyrido[3,2-h]chroman] | 344
30 | COc1cc(C2CC(O)Oc3c2ccc2[nH]c(=O)[nH]c32)cc(Br)c1OC (stereo not shown) [Example 29, 4-(3-Bromo-4,5-dimethoxyphenyl)-7,9-dihydro-2-hydroxy-8-oxo-imidazolo[4,5-h]chroman] | 360
31 | COc1cc(C2CC(O)Oc3c2ccc2cc[nH]c32)cc(Br)c1OC (stereo not shown) [Example 30, 4-(3-Bromo-4,5-dimethoxyphenyl)-2-hydroxy-pyrrolo[3,2-h]chroman] | 379
